Measurements: PubChem BioAssay (NCI)
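Where inhibition never reached the appropriate level, the endpoint shown equals the highest concentration tested. Otherwise, values were interpolated linearly from a five-concentration, 48-hour dose response in 96-well plates. GI50 = concentration required for 50% inhibition of growth. TGI marks complete inhibition of growth.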

Assays:
Experiment in all cases: NCI anticancer screen, dose series, 48 h
OVCAR-5 ovarian = tested on: OVCAR-5 ovarian
IGROV1 ovarian = tested on: IGROV1 ovarian
COLO 205 colon = tested on: COLO 205 colon
RXF 393 renal = tested on: RXF 393 renal
TK-10 renal = tested on: TK-10 renal
KM12 colon = tested on: KM12 colon
EKVX NSCLC = tested on: EKVX NSCLC
SK-MEL-28 melanoma = tested on: SK-MEL-28 melanoma
UO-31 renal = tested on: UO-31 renal
SK-MEL-2 melanoma = tested on: SK-MEL-2 melanoma

| SMILES | GI50 (OVCAR-5 ovarian) [µM] | TGI (OVCAR-5 ovarian) [µM] | GI50 (IGROV1 ovarian) [µM] | TGI (IGROV1 ovarian) [µM] | GI50 (COLO 205 colon) [µM] | TGI (COLO 205 colon) [µM] | GI50 (RXF 393 renal) [µM] | TGI (RXF 393 renal) [µM] | GI50 (TK-10 renal) [µM] | TGI (TK-10 renal) [µM] | GI50 (KM12 colon) [µM] | TGI (KM12 colon) [µM] | GI50 (EKVX NSCLC) [µM] | TGI (EKVX NSCLC) [µM] | GI50 (SK-MEL-28 melanoma) [µM] | TGI (SK-MEL-28 melanoma) [µM] | GI50 (UO-31 renal) [µM] | TGI (UO-31 renal) [µM] | GI50 (SK-MEL-2 melanoma) [µM] | TGI (SK-MEL-2 melanoma) [µM] |
| --- | --- | --- | --- | --- | --- | --- | --- | --- | --- | --- | --- | --- | --- | --- | --- | --- | --- | --- | --- | --- |
| CCNC(=O)O[C@H]1CN[C@H](C#Cc2cc3ncnc(Nc4ccc(OCc5cccc(F)c5)c(Cl)c4)c3s2)C1 | 8.98 | > 25 | 2.66 | > 25 | 6.9 | > 17.7 | 4.75 | > 17.3 | 0.198 | 11.4 | 6.59 | > 23.1 | 0.668 | > 14.8 | > 25 | > 25 | 1.49 | > 18.4 | 6.1 | 24.9 |
| O=C1C(=O)c2cccnc2-c2ncccc21 | 0.328 | 1.29 | 0.133 | 0.413 | 1.03 | 2.51 | 0.0768 | 0.266 | 1.24 | 2.6 | 0.409 | 1.59 | 0.322 | 1.29 | 0.472 | 1.8 | 0.159 | 0.486 | 0.71 | 2.35 |
| NC(N)=NS(=O)(=O)c1ccc(NCCc2c3ccccc3nc3ccccc23)cc1 |  | > 100 |  | > 100 |  | > 100 |  | > 100 |  | > 100 |  | > 100 |  | > 100 |  | > 100 |  | > 100 |  | > 100 |
| COc1cc2c(cc1OC)/C(=C\c1ccccc1N)C(=O)OC2 |  | 35.4 |  | 36.7 |  | 28.8 |  | 12.9 |  | 35.2 |  | 31.3 |  | 44.2 |  | 41.5 |  | 32.7 |  | 26.4 |
| CN(C)c1ccc(/C=c2\sc3nc4ccccc4n3c2=O)cc1 |  | > 100 |  | > 100 |  | > 100 |  | > 100 |  | > 100 |  | > 100 |  | > 100 |  | > 100 |  | > 100 |  | > 100 |
| O=C1C(Cl)=C(NCc2ccco2)C(=O)c2ccccc21 | 33.8 | > 65.1 | 10.9 | 44 | 9.11 | 26.4 | 21.6 | 50.6 | 22.1 | > 100 | 8.67 | > 100 | 37.3 | > 100 | 6.89 | 17.8 | 38.5 | > 100 | 35 | > 100 |
| CN(C)CC/[N+]([O-])=C(/c1ccccc1)C12CC3CC(CC(C3)C1)C2 |  | 32 |  | 33.9 |  | 30.3 |  | 32.9 |  | 30.7 |  | 33.3 |  | 38.1 |  | 29.9 |  | 24.6 |  | 34.9 |
| CC(=O)C1=C(O)CC2CC3c4[nH]c5ccccc5c4CCN3CC2C1 (stereo not given) |  | > 100 |  | > 100 |  | > 100 |  | 82.3 |  | > 100 |  | > 100 |  | > 100 |  | > 100 |  | > 100 |  | > 100 |
| C=C1CC2(OC1=O)C(=O)Nc1ccccc12 (stereo not given) | 5.83 | 19.4 | 2.36 | 7.72 | 0.885 | 2.41 | 1.45 | 2.9 | 1.8 | 4.09 | 10.4 | 27.2 | 13.5 | 26.7 | 1.99 | 4.26 | 2.09 | 5.79 | 13.4 | 30 |
| CC(C)=CC1=C2C3=C(C(=O)C4(O)Oc5c(C)c6c7c(c5OC24C)[C@@H](C)CC[C@@H]7[C@@H](C)C[C@H]6C=C(C)C)C(C)CCC3C(C)C1 (stereo not given in full) | > 100 | > 100 | > 100 | > 100 | > 100 | > 100 | > 100 | > 100 | > 100 | > 100 | > 100 | > 100 | > 100 | > 100 | 8.82 | > 100 | > 100 | > 100 | > 100 | > 100 |
| CSc1nc(SC)c2c(CO)c(Br)n(Cc3ccccc3)c2n1 |  | > 100 |  | 39.3 |  | > 100 |  | 60.3 |  | 79.4 |  | > 100 |  | > 100 |  | > 100 |  | 44.4 |  | > 100 |
| O=C1c2ccccc2S(=O)(=O)c2cc(-c3nn[nH]n3)ccc21 |  | > 100 |  | > 100 |  | > 100 |  | > 100 |  | > 100 |  | > 100 |  | > 100 |  | > 100 |  | > 100 |  | > 100 |
| Cc1cc(C)c(-n2c(-c3ccc(Br)cc3)cs/c2=N\N=C2C=C(C(C)(C)C)C(=O)C(C(C)(C)C)=C2)c(C)c1 |  | > 100 |  | > 100 |  | > 100 |  | 81.8 |  | > 100 |  | > 100 |  | > 100 |  | > 100 |  | > 100 |  | > 100 |
| CC12CCC(Br)C(C)(C)C1CC=C1C(=O)OCC1O2 (stereo not given) |  | > 53.3 |  | 17.7 |  | 34.7 |  | 26.3 |  | 28.5 |  | 32.3 |  | 47 |  | 28.6 |  | > 42.6 |  | 28.6 |
| C=C1C(=O)O[C@H]2[C@H]1CC/C(Cn1cc(-c3ccccc3C(F)(F)F)nn1)=C\CC[C@@]1(C)O[C@@H]21 | 2.46 | 8.95 | 1.81 | 3.86 | 1.98 | 3.81 | 1.07 | 2.32 | 1.71 | 3.2 | 5.88 | 19.2 | 2.32 | 7.12 | 1.75 | 3.47 | 1.23 | 2.61 | 2.45 | 5.78 |
| Clc1ccc(C(n2cc(Br)cn2)n2cc(Br)cn2)cc1 |  | 29.9 |  | 41.3 |  | 33.8 |  | 32.5 |  | 32 |  | 31.6 |  | 38.9 |  | 32.6 |  | 20 |  | 33.2 |
